Results published in PubChem BioAssay AID1645863 (Buhrlage Lab, Dana-Farber Cancer Institute and Novartis …, 2021).
pIC50: −log10 of the molar value. Activity calls are given as the source filed them. No rule for the calls is given here. Where a SMILES comes first, the peptide text is derived from it. Bridges are numbered along the chain shown (N, C = ends). The star is where a group is joined. ξ: configuration not given here. Pentadecanoyl(3ξ-OH,15-Gua) = N=C(N)NCCCCCCCCCCCCC(O)CC(=O)*

Target: Ubiquitin carboxyl-terminal hydrolase 10 (Homo sapiens) (UniProt Q14694)
Sequence (Q14694 whole entry, looked up): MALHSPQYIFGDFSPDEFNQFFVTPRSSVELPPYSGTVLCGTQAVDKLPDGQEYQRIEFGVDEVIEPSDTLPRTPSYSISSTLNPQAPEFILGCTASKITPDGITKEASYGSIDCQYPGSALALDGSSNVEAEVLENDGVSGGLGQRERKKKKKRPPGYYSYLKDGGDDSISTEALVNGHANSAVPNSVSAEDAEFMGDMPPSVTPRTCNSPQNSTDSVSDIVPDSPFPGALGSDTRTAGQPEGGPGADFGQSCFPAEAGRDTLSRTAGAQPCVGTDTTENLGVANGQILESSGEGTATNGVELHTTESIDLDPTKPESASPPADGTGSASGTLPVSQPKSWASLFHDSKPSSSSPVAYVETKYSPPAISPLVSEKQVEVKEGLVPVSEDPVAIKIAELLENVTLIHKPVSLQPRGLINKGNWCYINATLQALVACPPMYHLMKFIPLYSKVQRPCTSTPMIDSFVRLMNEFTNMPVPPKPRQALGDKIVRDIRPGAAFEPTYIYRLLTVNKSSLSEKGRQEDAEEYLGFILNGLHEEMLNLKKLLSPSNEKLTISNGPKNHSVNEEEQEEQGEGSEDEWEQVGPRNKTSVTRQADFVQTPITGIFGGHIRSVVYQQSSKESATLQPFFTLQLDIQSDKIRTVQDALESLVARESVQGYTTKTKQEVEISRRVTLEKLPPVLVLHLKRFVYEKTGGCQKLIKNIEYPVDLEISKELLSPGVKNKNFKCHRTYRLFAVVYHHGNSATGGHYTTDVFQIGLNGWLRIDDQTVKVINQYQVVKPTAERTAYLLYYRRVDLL
Assay: ubiquitin-specific protease 10 DUB inhibitors, concentration-effect, biochemical, verification of primary screen actives (AID 1645863);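 also: potency values describe inhibition of USP10 cleavage of a fluorogenic ubiquitin substrate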
Details: USP10 deubiquitinase enzymatic assay

| SMILES | IC50 | pIC50 |
| --- | --- | --- |
| N#Cc1ccc(NC(=O)Nc2cccn(Cc3c(F)cccc3Cl)c2=O)cc1 | > 40 µM (inactive) | – |
| CCn1cc2c(n1)c(=O)n(Cc1ccc(C)cc1)c(=O)n2CC(=O)Nc1ccc(F)cc1 | > 40 µM (inactive) | – |
| Cc1ccc(-n2c(=O)[nH]c3c(C(N)=O)nc(-c4ccc(OCc5ccccc5)cc4)nc32)cc1 | > 40 µM (inactive) | – |
| Cc1cc(C)c(NC(=O)Cc2sc(Nc3ccc(C)c(C)c3)nc2O)c(C)c1 | > 40 µM (inactive) | – |
| CC(=O)c1ccc(N2CCN(S(=O)(=O)c3cc4c(cc3C)NC(=O)CO4)CC2)cc1 | > 40 µM (inactive) | – |
| Cc1ccc(C)c(Cn2cnc3c(nnn3-c3cccc(F)c3)c2=O)c1 | > 40 µM (inactive) | – |
| COc1cccc2cc(-c3nnc(SCC(=O)c4ccc(F)cc4)n3C)oc12 | > 40 µM (inactive) | – |
| C[C@@H]1OC2=C(C(=O)c3cccc(O)c3C2=O)[C@H](O)[C@@H]1O | – | 5.21 |
| CCCCNC(=O)CSc1nnc(-c2cc3ccccc3n2C)o1 | > 40 µM (inactive) | – |
| Cc1ccc2nc(CNc3ccc(F)cc3C)cc(=O)n2c1 | > 40 µM (inactive) | – |
| O=C(Nc1nc(-c2ccccc2)ns1)c1ccc2ncsc2c1 | – | 4.50 |
| COc1ccc2[nH]c(=O)c(CN(C)C(=O)c3ccc([N+](=O)[O-])cc3)cc2c1 | > 40 µM (inactive) | – |
| CCOC(=O)c1cc2c(ccn2-c2ccc(F)cc2)n1CC(=O)Nc1ccc2c(c1)OCCO2 | – | 4.52 |
| Cc1cc(O)c(=O)cc2c1C[C@H]1CC(C)(C)/C=C/C[C@@]3(C)Oc4cc(=O)c(O)cc(C)c4C[C@@H]3C[C@H](O)[C@]1(C)O2 | > 40 µM (inactive) | – |
| COc1ccc(COc2ccc3c(C)c(CC(=O)N4CC[C@@]5(O)CCCC[C@H]5C4)c(=O)oc3c2)cc1 | > 40 µM (inactive) | – |
| O=C(CCCn1c(=O)c2ccccc2n(CC(=O)NCc2ccccc2Cl)c1=O)NCc1ccc2c(c1)OCO2 | – | 5.05 |
| Cc1cc(NS(=O)(=O)c2ccc(NC(=O)COc3ccc(Cl)cc3)cc2)no1 | > 40 µM (inactive) | – |
| CCC(C)N1CNc2c(c(=O)[nH]c(=O)n2Cc2ccco2)C1 (centres undefined) | > 40 µM (inactive) | – |
| Cc1ccc(S(=O)(=O)Nc2ccccc2C(=O)Nc2nc3ccc(Br)cc3s2)cc1 | > 40 µM (inactive) | – |
| O=C(CCc1ccc(S(=O)(=O)N2CCOCC2)cc1)OCC(=O)c1ccc(-c2ccccc2)cc1 | – | 4.41 |
| Cc1ccc(-c2nn(C(C)(C)C)c3ncnc(NS(=O)(=O)c4ccc(Cl)cc4)c23)cc1 | > 40 µM (inactive) | – |
| CCCN1CCN(C(=O)Cn2c(C)ccc(NC(=O)c3ccccc3)c2=O)CC1 | > 40 µM (inactive) | – |
| C=C[C@]1(C)CC[C@]2(C)[C@@H](C1)[C@@H](O)C[C@H]1[C@]3(C)CCC[C@@]12OC3=O | > 40 µM (inactive) | – |

| SMILES | IC50 | pIC50 |
| --- | --- | --- |
| N=C1/C(=C/c2cn(Cc3ccccc3F)c3ccccc23)C(=O)N=C2SC(C(F)(F)F)=NN12 | inactive | – |
| CSc1ncccc1C(=O)NC1(O)C(=O)c2ccccc2C1=O | – | 5.01 |
| CC1NC(=O)C(CC(N)=O)NC(=O)C(C(C)O)NC(=O)C(Cc2ccc(O)cc2)NC(=O)C(C(C)C)NC(=O)C(NC(=O)CC(O)CCCCCCCCCCCCN=C(N)N)C(C)OC1=O (centres undefined) ({Pentadecanoyl(3ξ-OH,15-Gua)}-TVYTNA; ester 1-C; configuration not given here) | > 40 µM (inactive) | – |
| O=C(Cn1cccc(-c2nc(-c3ccccc3)no2)c1=O)Nc1ccccc1F | > 40 µM (inactive) | – |
| O=C(CSc1oc(-c2ccc(F)cc2)nc1S(=O)(=O)c1ccc(F)cc1)Nc1ccc(F)cc1 | – | 4.46 |
| O=c1[nH]cccc1NS(=O)(=O)c1ccc(F)cc1 | > 40 µM (inactive) | – |
| CC(C)c1nnc(NC(=O)C2CC(=O)N(CCc3ccc(F)cc3)C2)s1 (centres undefined) | > 40 µM (inactive) | – |
| O=C(CSc1nc(=O)n(Cc2ccncc2)c2c1CCC2)NCCc1ccccc1 | > 40 µM (inactive) | – |
| CN(C)c1ccc(S(=O)(=O)N2CCCCC2)cc1NC(=O)COc1ccccc1 | > 40 µM (inactive) | – |
| CCCc1cc(=O)n2[nH]c(COc3ccccc3)c(-c3ccccc3)c2n1 | – | 4.85 |
| Cc1ccc(CNC(=O)c2ccc3nn(CC(=O)Nc4ccccc4F)c(=O)n3c2)cc1 | > 40 µM (inactive) | – |
| O=C(Cn1c(=O)n(Cc2ccccc2)c(=O)c2ncccc21)NCc1ccccc1Cl | > 40 µM (inactive) | – |
| Cc1occ2c1C(=O)c1c(O)ccc(O)c1C2 | – | 5.32 |
| C=C/C(=C/C(=O)C[C@H](C)C[C@@H](C)CC[C@H](O)[C@H](C)C(=O)CC(O)[C@H](C)[C@@H](C)OC(=O)C[C@@H](O)C1=C(C)C(=O)OC1=O)CC (some centres undefined) | – | 5.04 |
| O=C1CSC(c2ccc3c(c2)OCO3)c2c(n(C3CCCCCC3)[nH]c2=O)N1 (centres undefined) | – | 4.43 |
| COc1ccc(NC(=O)Cn2c(=O)n(CCC(=O)NCc3ccccc3)c(=O)c3sccc32)cc1Cl | > 40 µM (inactive) | – |
| Cn1c(=O)[nH]c2nncnc2c1=O | > 40 µM (inactive) | – |
| O=C(Nc1ccc(NC(=O)c2ccccc2O)cc1)Nc1ccc(OCc2ccccc2)cc1 | > 40 µM (inactive) | – |
| O=C(CCc1ccc(F)cc1)N1CCOC(CCc2cc(=O)[nH]cn2)C1 (centres undefined) | > 40 µM (inactive) | – |
| CCOC(=O)N1CCN(C(=O)c2ccc(NCc3ccc(F)cc3)c(S(=O)(=O)Nc3cccc(C(F)(F)F)c3)c2)CC1 | – | 4.53 |
| O=C1c2c(O)c(Cl)cc3c2[C@@]2(Oc4ccc(O)c5c4[C@]3(O2)[C@@H]2O[C@@H]2C5=O)[C@@H]2O[C@H]12 | – | 5.88 |
| CC(c1ccccc1)N1CC(O)=C(c2nc3ccccc3s2)C1=N (centres undefined) | > 40 µM (inactive) | – |
| O=C(CNC(=O)c1ccc2nc(-n3cccc3)sc2c1)NCc1ccccc1 | > 40 µM (inactive) | – |

| SMILES | IC50 | pIC50 |
| --- | --- | --- |
| CSc1nc2ncn(CC(=O)Nc3ccc(Br)cc3)c(=O)c2s1 | > 40 µM (inactive) | – |
| O=c1c2cc(Br)ccc2[nH]c(=S)n1Cc1cccnc1 | > 40 µM (inactive) | – |
| Cc1ccc(C(=O)NC(C)c2ccccc2)cc1NC(=O)c1nsc2ccccc12 (centres undefined) | – | 4.55 |
| CN(C(=O)C1(c2ccccc2)CC1)c1nc2c(s1)CCc1occc1-2 | > 40 µM (inactive) | – |
| Cn1c(=O)c2ncnnc2n(C)c1=O | – | 5.51 |
| O=C(CCCn1c(=O)c2cc(Cl)ccc2n(CC(=O)Nc2cccc(F)c2)c1=O)NCc1ccco1 | > 40 µM (inactive) | – |
| Cc1ccc(C)c(S(=O)(=O)N2CCN(c3ccc4nnc(-c5ccco5)n4n3)CC2)c1 | > 40 µM (inactive) | – |
| CC(=O)Nc1ccc(NC(=O)c2ccc3c(c2)CC(c2ccccc2)OC3=O)cc1 (centres undefined) | – | 4.84 |
| O=c1[nH]c(C2CCN(S(=O)(=O)c3ccc(S(=O)(=O)NC4CCCCC4)cc3)CC2)nc2c1nnn2Cc1ccc(F)cc1 | – | 4.66 |
| CC(NC(=O)c1nc2n(n1)-c1ccccc1S(=O)(=O)N2)c1cc2ccccc2o1 (centres undefined) | – | 4.51 |
| CCc1ccc(NC(=O)Cc2nnc3cc(-c4nc(C)no4)ccn23)cc1 | – | 4.90 |
| O=C(COC(=O)c1ccc(NS(=O)(=O)c2ccc(F)c(F)c2)cc1)Nc1ccc(OCc2ccccc2)cc1 | – | 4.68 |
| O=C(c1ccc2occc2c1)N1CCC(S(=O)(=O)c2ccc(-c3ccco3)cc2)CC1 | > 40 µM (inactive) | – |
| COc1cc(Cl)c(NC(=O)c2cc(-c3ccccn3)n[nH]2)c(OC)c1 | > 40 µM (inactive) | – |
| CCCCCCC1CCC(O)CC(O)CC(O)CC(O)CC(O)CC(O)/C(C)=C/C=C\C=C/C=C/C=C/[C@H](O)[C@@H](C)OC1=O (some centres undefined) | > 40 µM (inactive) | – |
| Cc1ccccc1-c1nnc2sc(COc3ccc(Cl)cc3)nn12 | > 40 µM (inactive) | – |
| CCCCCCCc1cc(OC(=O)c2c(CCCCCCC)cc(O)cc2O[C@@H]2O[C@H](CO)[C@H](O)[C@H](O)[C@H]2O)cc(O)c1C(=O)O | – | 5.29 |
| O=C(Cc1ccc(-n2c(=O)c3ccccc3n(Cc3cccc(F)c3)c2=O)cc1)NC1CCCC1 | > 40 µM (inactive) | – |
| O=C(Cn1c(=O)c2ccccc2c2ccccc21)Nc1ccc2c(c1)OCO2 | – | 4.46 |
| O=[N+]([O-])c1ccc2c(c1)nc1n2CCN(Cc2ccco2)C1 | > 40 µM (inactive) | – |
| COC(=O)c1ccc(C(=O)Nc2cc3ccccc3cc2NC(=O)c2ccc(C(=O)OC)cc2)cc1 | > 40 µM (inactive) | – |
| CCOc1ccc2c(c1)c(=O)c(C(=O)c1ccc(C)cc1)cn2CC(=O)Nc1ccc(C)cc1 | > 40 µM (inactive) | – |
| COc1cccc(-c2cncc(C3CCN(S(=O)(=O)N(C)C)CC3)n2)c1 | > 40 µM (inactive) | – |

| SMILES | IC50 | pIC50 |
| --- | --- | --- |
| CC1CCCN(S(=O)(=O)c2ccc(-n3cnc(C(=O)NC4CC4)c3)nc2)C1 (centres undefined) | – | 4.64 |
| N#Cc1cccc(NC(=O)COC(=O)c2n[nH]c3ccccc23)c1 | – | 4.70 |
| Cn1c(CCNC(=O)c2[nH]nc3c2CCc2ccccc2-3)nc2ccccc21 | – | 4.44 |
| N#Cc1cccnc1N1CCN(C(=O)Nc2cccc3ccccc23)CC1 | > 40 µM (inactive) | – |
| COc1cc(OC)c2c(c1)C(=O)C1=C(COC(C)(O)C1)C2=O (centres undefined) | > 40 µM (inactive) | – |
| O=C1NC(=O)/C(=C/c2ccc(OC(=O)c3ccc(Cl)cc3Cl)cc2)N1 | – | 4.66 |
| Cc1cc(C(=O)NC2(O)C(=O)c3ccccc3C2=O)n(C)n1 | – | 4.85 |
| Cc1ccc(C(=O)c2cn(CC(=O)Nc3ccccc3)c3ccc(C)cc3c2=O)cc1 | > 40 µM (inactive) | – |
| COc1cccc(NC(=O)C(Sc2cccc(NC(=O)c3ccccc3F)c2)c2ccccc2)c1 (centres undefined) | – | 4.47 |
| COc1ccc(-c2cc3nc([C@H](C)NC(=O)CC4CCCC4)nn3cn2)cc1 | > 40 µM (inactive) | – |
| COc1ccc(S(=O)(=O)NC2CC(=O)N(c3ccc(Cl)cc3)C2)cc1 (centres undefined) | > 40 µM (inactive) | – |
| O=C(NC1CCCC1)c1ccc(Cn2c(=O)c3ccccc3n(Cc3cc(=O)n4ccccc4n3)c2=O)cc1 | > 40 µM (inactive) | – |
| COc1cc(NC(=O)Cc2ccccc2)ccc1NC(=O)c1cc2ccccc2o1 | – | 4.55 |
| CCc1ccccc1NC(=O)Cn1c(SCc2ccc(F)cc2)nc2cccnc21 | – | 4.60 |
| Cc1ccc(C2SCC(=O)Nc3c2c(=O)[nH]n3C2CCCCC2)cc1 (centres undefined) | – | 4.54 |
| O=C(CCCc1nnc2c(=O)n(-c3cccc(F)c3)ccn12)NCc1ccc(F)cc1 | – | 4.45 |
| COc1ccc(-c2nc(-c3nnn(Cc4ccc(F)cc4)c3C)no2)c(OC)c1 | > 40 µM (inactive) | – |
| Cc1ccc(-c2nc(NC(=O)COc3ccc(Cl)cc3)no2)cc1 | – | 4.87 |
| CCn1cc2c(n1)c(=O)n(Cc1ccccc1)c(=O)n2CC(=O)NCc1ccc(C)cc1 | > 40 µM (inactive) | – |
| Cc1cc(C)c2nc3c(cc2c1)CN(Cc1ccco1)C(=O)O3 | > 40 µM (inactive) | – |
